Drawing on patent US6218406A, “Farnesyl transferase inhibitors, their preparation, the pharmaceutical compositions which contain them and their use in the preparation of medicaments” (Aventis Pharma S.A., priority 1996, dated 2001), this text covers IC50 for 21 compounds.

One assay addresses farnesyl transferase (Homo sapiens, UniProt P49354+P49356). The assay is described as follows: Farnesyl transferase inhibition, [3H]-farnesylation of biotinylated K-ras C-terminal peptide (SPA assay). The conditions noted are these: In vitro inhibitory activity (K-Ras) IC50, K-Ras substrate; 60 min at 37° C.; mean of two IC50 values. The assay is classed as biochemical. How it is done: The farnesyl transferase activity was measured by the amount farnesylated of K-ras substrate or of substrate derived from the peptide corresponding to its C-terminal part, the farnesyl group being introduced by farnesyl pyrophosphate (FPP).
It was then brought into contact with PVT-streptavidin (Amersham)® beads and was quantified by proximity scintillation (SPA assay) between the tritium and the PVT beads, by virtue of the streptavidin/biotin interaction.
Experimentally, farnesyl transferase purified according to the appended protocol was diluted, for this assay, to a concentration such that a consumption of substrates of less than 30% was obtained.
The reaction, carried out in Optiplates 96° microtitration plates, was initiated by the enzyme and lasted sixty minutes at 37° C. It was stopped by addition of 150 μl of mixture of a blocking buffer at pH 4 composed of 0.2M H3 PO4, 1.5 mM MgCl2, 0.5% (w/v) BSA, 0.05% (w/v) sodium azide containing 200 μg of PVT-streptavidin beads.
After slow agitation for thirty minutes (in order to remove the chemiluminescence), the plates were read as [^3 H]CPM in a Top Count® (Packard) scintillation counter for microplates, where they were converted into [^3 H]DPM from a range of coloured agent attenuating the scintillation (quenching).
The percentages of inhibition were calculated with respect to an inhibitor-free control after subtraction from all the values of that of a blank which only contained the substrates and the buffer.
The IC50 values were calculated or measured, from the inhibitions obtained at nine different concentrations, with Enzfitter® or Grafit® software. The IC50 values which appear in the results are the mean of measurements and calculations of two IC50 values.
As for `C=C(C(=O)N1C[C@H]2[C@@]3(c4ccc(C)s4)CC[C@@H](c4ccccc43)[C@]2(C(=O)O)C1)c1ccccc1OC` (racemic) [Example 48, (3aRS,4SR,9SR,9aRS)-4,9-ethano-2-[2-(2-methoxyphenyl)propenoyl]-9-(5-methyl-2-thienyl)-2,3,3a,4,9,9a-hexahydro-1H-benzo[f]isoindole-3a-carboxylic Acid], the half-inhibitory concentration (IC50) was found to be 95 nM.

The assay is the same for the next values; noted with them: K-Ras substrate; 60 min at 37° C.; mean of two IC50 values; read-out: In vitro inhibitory activity (K-Ras) IC50.
For `C=C(C(=O)N1C[C@@H]2[C@]3(c4ccc(C)cc4)CC[C@@H](c4ccccc43)[C@]2(C(=O)OC)C1)c1ccccc1OC` (racemic) [Example 1, methyl (3aRS,4SR,9SR,9aRS)-4,9-ethano-2-[2-(2-methoxyphenyl)propenoyl]-9-(4-methylphenyl)-2,3,3a,4,9,9a-hexahydro-1H-benzo[f]isoindole-3a-carboxylate], the IC50 is 305 nM.

For `C=C(C(=O)N1C[C@@H]2[C@@]3(c4ccc(C)cc4)CC[C@@H](c4ccccc43)[C@]2(C(=O)O)C1)c1ccccc1OC` (racemic) [Example 2, (3aRS,4SR,9RS,9aRS)-4,9-ethano-2-[2-(2-methoxyphenyl)propenoyl]-9-(4-methylphenyl)-2,3,3a,4,9,9a-hexahydro-1H-benzo[f]isoindole-3a-carboxylic Acid], the IC50 amounted to 45 nM.

Consider `COC(=O)[C@@]12CN(C(=O)Cc3ccccc3OC)C[C@@H]1[C@]1(c3ccc(C)c(C)c3)CC[C@H]2c2ccccc21` (racemic) [Example 11, Methyl (3aRS,4SR,9SR,9aRS)-9-(3,4-dimethylphenyl)-4,9-ethano-2-[(2-methoxyphenyl)acetyl]-2,3,3a,4,9,9a-hexahydro-1H-benzo[f]isoindole-3a-carboxylate], for which the half-maximal inhibitory concentration (IC50) stood at 345 nM.

`COc1ccccc1CC(=O)N1C[C@@H]2[C@]3(c4ccc(C)c(C)c4)CC[C@@H](c4ccccc43)[C@]2(C(=O)O)C1` (racemic) [Example 12, (3aRS,4SR,9SR,9aRS)-9-(3,4-dimethyl-phenyl)-4,9-ethano-2-[(2-methoxyphenyl)acetyl]-2,3,3a,4,9,9a-hexahydro-1H-benzo[f]isoindole-3a-carboxylic Acid]: the 50% inhibitory concentration (IC50) is 45 nM.

For the compound `C=C(C(=O)N1C[C@@H]2[C@]3(c4ccc(C)cc4)CC[C@@H](c4ccccc43)[C@]2(C(=O)NOCc2ccccc2)C1)c1ccccc1OC` (racemic) [Example 14, benzyl (3aRS,4SR,9SR,9aRS)-4,9-ethano-2-[2-(2-methoxyphenyl)propenoyl]-9-(4-methylphenyl)-2,3,3a,4,9,9a-hexahydro-1H-benzo[f]isoindole-3a-hydroxamate], the half-maximal inhibitory concentration (IC50) came to 210 nM.

As to `C=C(C(=O)N1C[C@@H]2[C@]3(c4ccc(C)cc4)CC[C@@H](c4ccccc43)[C@]2(C(N)=O)C1)c1ccccc1OC` (racemic) [Example 15, (3aRS,4SR,9SR,9aRS)-3a-carbamoyl-4,9-ethano-2-[2-(2-methoxyphenyl)propenoyl]-9-(4-methylphenyl)-2,3,3a,4,9,9a-hexahydro-1H-benzo[f]isoindole], the IC50 was determined as 170 nM.

On to `C=C(C(=O)N1C[C@@H]2[C@]3(c4ccc(C)cc4)CC[C@@H](c4ccccc43)[C@]2(C(=O)NO)C1)c1ccccc1OC` (racemic) [Example 16, (3aRS,4SR,9SR,9aRS)-4,9-ethano-2-[2-(2-methoxyphenyl)propenoyl]-9-(4-methylphenyl)-2,3,3a,4,9,9a-hexahydro-1H-benzo[f]isoindole-3a-hydroxamic acid], for which the IC50 was 360 nM.

In the case of `C=C(C(=O)N1C[C@@H]2[C@]3(c4ccc(C)cc4)CC[C@@H](c4ccccc43)[C@]2(C(=O)NOC)C1)c1ccccc1OC` (racemic) [Example 21, Methyl (3aRS,4SR,9SR,9aRS)-4,9-ethano-2-[2-(2-methoxyphenyl)propenoyl]-9-(4-methylphenyl)-2,3,3a,4,9,9a-hexahydro-1H-benzo[f]isoindole-3a-hydroxamate], the 50% inhibitory concentration (IC50) was 111 nM.

In the case of `C=C(C(=O)N1C[C@@H]2[C@]3(c4ccc(C)cc4)CC[C@@H](c4ccccc43)[C@]2(C(=O)NS(=O)(=O)c2ccccc2)C1)c1ccccc1OC` (racemic) [Example 25, (3aRS,4SR,9SR,9aRS)-4,9-ethano-2-[2-(2-methoxyphenyl)propenoyl]-9-(4-methylphenyl)-3a-phenylsulphonylaminocarbonyl-2,3,3a,4,9,9a-hexahydro-1H-benzo[f]isoindole], the IC50 amounted to 193 nM.

Take `C=C(C(=O)N1C[C@@H]2[C@]3(c4ccc5c(c4)OCCO5)CC[C@@H](c4ccccc43)[C@]2(C(=O)OC)C1)c1ccccc1OC` (racemic) [Example 31, methyl (3aRS,4SR,9SR,9aRS)-9-(2,3-dihydro-1,4-benzodioxin-6-yl)-4,9-ethano-2-[2-(2-methoxyphenyl)propenoyl]-2,3,3a,4,9,9a-hexahydro-1H-benzo[f]isoindole-3a-carboxylate]: the concentration for half-maximal inhibition (IC50) is 101 nM.

Consider `C=C(C(=O)N1C[C@@H]2[C@]3(c4ccc5c(c4)OCCO5)CC[C@@H](c4ccccc43)[C@]2(C(=O)O)C1)c1ccccc1OC` (racemic) [Example 32, (3aRS,4SR,9SR,9aRS)-9-(2,3-dihydro-1,4-benzodioxin-6-yl)-4,9-ethano-2-[2-(2-methoxyphenyl)-propenoyl]-2,3,3a,4,9,9a-hexahydro-1H-benzo[f]isoindole-3a-carboxylic Acid], for which the half-inhibitory concentration (IC50) is 106 nM.

For `COc1ccccc1CC(=O)N1C[C@@H]2[C@]3(c4cc(C)c(C)c(C)c4)CC[C@@H](c4ccccc43)[C@]2(C(=O)O)C1` (racemic) [Example 37, (3aRS,4SR,9SR,9aRS)-4,9-ethano-2-[(2-methoxyphenyl)acetyl]-9-(3,4,5-trimethylphenyl)-2,3,3a,4,9,9a-hexahydro-1H-benzo[f]isoindole-3a-carboxylic Acid], the concentration for half-maximal inhibition (IC50) was found to be 88 nM.

For `C=C(C(=O)N1C[C@@H]2[C@]3(c4ccccc4C)CC[C@@H](c4ccccc43)[C@]2(C(=O)O)C1)c1ccccc1OC` (racemic) [Example 38, (3aRS,4SR,9SR,9aRS)-4,9-ethano-2-[2-(2-methoxyphenyl)propenoyl]-9-(2-methylphenyl)-2,3,3a,4,9,9a-hexahydro-1H-benzo[f]isoindole-3a-carboxylic Acid], the IC50 is 99 nM.

For `C=C(C(=O)N1C[C@@H]2[C@]3(c4ccc(C(F)(F)F)cc4)CC[C@@H](c4ccccc43)[C@]2(C(=O)OC)C1)c1ccccc1OC` (racemic) [Example 39, methyl (3aRS,4SR,9SR,9aRS)-4,9-ethano-2-[2-(2-methoxyphenyl)propenoyl]-9-[4-(trifluoromethyl)phenyl]-2,3,3a,4,9,9a-hexahydro-1H-benzo[f]isoindole-3a-carboxylate], the half-maximal inhibitory concentration (IC50) is 273 nM.

`C=C(C(=O)N1C[C@@H]2[C@]3(c4ccc(C(F)(F)F)cc4)CC[C@@H](c4ccccc43)[C@]2(C(=O)O)C1)c1ccccc1OC` (racemic) [Example 40, (3aRS,4SR,9SR,9aRS)-4,9-ethano-2-[2-(2-methoxyphenyl)propenoyl]-9-[4-(trifluoromethyl)phenyl]-2,3,3a,4,9,9a-hexahydro-1H-benzo[f]isoindole-3a-carboxylic Acid]: the concentration for half-maximal inhibition (IC50) came out at 83 nM.

Consider `C=C(C(=O)N1C[C@@H]2[C@]3(c4ccc5ccccc5c4)CC[C@@H](c4ccccc43)[C@]2(C(=O)OC)C1)c1ccccc1OC` (racemic) [Example 45, methyl (3aRS,4SR,9SR,9aRS)-4,9-ethano-2-[2-(2-methoxyphenyl)propenoyl]-9-(2-naphthyl)-2,3,3a,4,9,9a-hexahydro-1H-benzo[f]isoindole-3a-carboxylate], for which the 50% inhibitory concentration (IC50) was found to be 181 nM.

With `C=C(C(=O)N1C[C@H]2[C@@]3(c4ccc(C)s4)CC[C@@H](c4ccccc43)[C@]2(C(=O)OC)C1)c1ccccc1OC` (racemic) [Example 47, methyl (3aRS,4SR,9SR,9aRS)-4,9-ethano-2-[2-(2-methoxyphenyl)propenoyl]-9-(5-methyl-2-thienyl)-2,3,3a,4,9,9a-hexahydro-1H-benzo[f]isoindole-3a-carboxylate], the 50% inhibitory concentration (IC50) stood at 207 nM.

For the compound `C=C(C(=O)N1C[C@@H]2[C@]3(c4ccc(Br)cc4)CC[C@@H](c4ccccc43)[C@]2(C(=O)OC)C1)c1ccccc1OC` (racemic) [Example 49, methyl (3aRS,4SR,9SR,9aRS)-9-(4-bromophenyl)-4,9-ethano-2-[2-(2-methoxyphenyl)-propenoyl]-2,3,3a,4,9,9a-hexahydro-1H-benzo[f]isoindole-3a-carboxylate], the concentration for half-maximal inhibition (IC50) came to 229 nM.

As to `C=C(C(=O)N1C[C@@H]2[C@]3(c4ccc(Br)cc4)CC[C@@H](c4ccccc43)[C@]2(C(=O)O)C1)c1ccccc1OC` (racemic) [Example 50, (3aRS,4SR,9SR,9aRS)-9-(4-bromophenyl)-4,9-ethano-2-[2-(2-methoxyphenyl)propenoyl]-2,3,3a,4,9,9a-hexahydro-1H-benzo[f]isoindole-3a-carboxylic Acid], the IC50 stood at 59 nM.

On to `C=C(C(=O)N1C[C@@H]2[C@]3(c4ccc(Cl)c(Cl)c4)CC[C@@H](c4ccccc43)[C@]2(C(=O)O)C1)c1ccccc1OC` (racemic) [Example 51, (3aRS,4SR,9SR,9aRS)-9-(3,4-dichlorophenyl)-4,9-ethano-2-[2-(2-methoxyphenyl)-propenoyl]-2,3,3a,4,9,9a-hexahydro-1H-benzo[f]isoindole-3a-carboxylic Acid], for which the IC50 is 68 nM.

A word on the IC50: it is the concentration needed to halve the response being measured.
